Source: EP4810052A2, “HCRHR2 SELECTIVE POLYPEPTIDES” (Gubra A/S, priority 2023, dated 2026)
Where two headings read alike, the source gives them in different places. Starred links: 1 amine or outer side, 2 acyl side, 3 side chain; linkers in the order of their positions; H or OH if unused. Non-standard residues stand in square brackets, D forms with d. Residues, ends and D or L forms follow the SMILES beside them. Groups on a side chain read outwards from the residue. *: point of attachment. C20 diacid = O=C(O)CCCCCCCCCCCCCCCCCCC(=O)*; γGlu = O=C(O)[C@H](CCC(=O)[*:2])N[*:1]; NMeI = CC[C@H](C)[C@H](NC)C(=O)O; Nle = CCCC[C@H](N)C(=O)O; AEEA = NCCOCCOCC(=O)O; Aib = CC(C)(N)C(=O)O

Legend:
hCRHR2 = biological target: T1, hCRHR2 (Homo sapiens, UniProt Q13324); assay: HTRF cAMP assay, determination of hCRHR2 potency (peptide libraries 5 conc., purified peptides 11 conc.); type: cell-based
T1 sequence (Q13324 1-411): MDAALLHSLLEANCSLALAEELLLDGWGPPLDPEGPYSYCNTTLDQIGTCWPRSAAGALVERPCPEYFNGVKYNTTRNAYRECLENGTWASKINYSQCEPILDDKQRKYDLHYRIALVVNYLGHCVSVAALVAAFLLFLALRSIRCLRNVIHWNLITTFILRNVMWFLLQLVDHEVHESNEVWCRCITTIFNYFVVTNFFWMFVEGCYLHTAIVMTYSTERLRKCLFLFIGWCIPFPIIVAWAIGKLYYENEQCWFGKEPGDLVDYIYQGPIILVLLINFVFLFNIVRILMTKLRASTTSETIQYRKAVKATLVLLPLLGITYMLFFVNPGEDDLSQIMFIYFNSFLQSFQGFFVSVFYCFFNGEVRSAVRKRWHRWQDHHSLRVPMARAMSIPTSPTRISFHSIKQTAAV
In short: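 CHO-K1 cells stably expressing human CRHR2, thawed from frozen stocks just before use and run in suspension; cAMP measured by competitive HTRF immunoassay (cryptate anti-cAMP, d2-cAMP). Agonist peptides tested at 5 (libraries) or 11 (purified) concentrations; EC50 from sigmoid variable-slope nonlinear regression.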

hCRHR1 = biological target: T2, hCRHR1 (Homo sapiens, UniProt P34998); assay: HTRF cAMP assay, determination of hCRHR1 potency (peptide libraries 5 conc., purified peptides 11 conc.); type: cell-based
T2 sequence (P34998 24-415): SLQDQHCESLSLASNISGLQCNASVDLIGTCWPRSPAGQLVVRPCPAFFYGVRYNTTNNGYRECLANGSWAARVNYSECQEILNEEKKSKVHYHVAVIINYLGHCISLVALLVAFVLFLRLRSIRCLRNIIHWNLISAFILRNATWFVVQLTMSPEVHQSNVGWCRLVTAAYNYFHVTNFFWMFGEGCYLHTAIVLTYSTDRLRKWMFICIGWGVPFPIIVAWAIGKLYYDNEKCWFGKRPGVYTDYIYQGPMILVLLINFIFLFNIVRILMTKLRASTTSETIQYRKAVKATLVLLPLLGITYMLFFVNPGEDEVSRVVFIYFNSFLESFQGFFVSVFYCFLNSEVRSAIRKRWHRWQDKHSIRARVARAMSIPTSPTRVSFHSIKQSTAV
In short: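 CHO-K1 cells stably expressing human CRHR1, thawed from frozen stocks just before use, were stimulated in suspension with agonist peptides. cAMP was measured by HTRF competitive immunoassay (cryptate anti-cAMP antibody vs d2-cAMP).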

| Structure (SMILES) | EC50 (hCRHR2; Table 4, library peptides having X^38 = Nle, read-out: hCRHR2 pEC50 (converted)) [nM] | Selectivity hCRHR1 EC50/hCRHR2 EC50 (hCRHR2; Table 4, ratio, or comparison with Ref. 1 (SEQ ID NO: 205) / Ref. 2 (SEQ ID NO: 124)) | EC50 (hCRHR1; Table 4, library peptides having X^38 = Nle, read-out: hCRHR1 pEC50 (converted)) [nM] | EC50 (hCRHR2; library peptides, matched molecular pairs L vs Nle in position X^38, read-out: Potency hCRHR2 pEC50 (converted)) [nM] | EC50 (hCRHR1; library peptides, matched molecular pairs L vs Nle in position X^38, read-out: Potency hCRHR1 pEC50 (converted)) [nM] |
| --- | --- | --- | --- | --- | --- |
| CCCC[C@H](NC(=O)[C@@H](NC(=O)[C@H](CCC(=O)O)NC(=O)C(C)(C)NC(=O)[C@H](CC(N)=O)NC(=O)[C@@H](NC(=O)[C@H](CCCCNC(=O)COCCOCCNC(=O)COCCOCCNC(=O)CC[C@H](NC(=O)CC[C@H](NC(=O)CCCCCCCCCCCCCCCCCCC(=O)O)C(=O)O)C(=O)O)NC(=O)[C@H](C)NC(=O)[C@H](CCC(N)=O)NC(=O)[C@H](CCC(=O)O)NC(=O)[C@H](CCCNC(=N)N)NC(=O)[C@H](C)NC(=O)[C@H](C)NC(=O)[C@H](CCCNC(=N)N)NC(=O)[C@H](C)NC(=O)[C@H](CCCNC(=N)N)NC(=O)[C@H](C)NC(=O)[C@H](CCC(N)=O)NC(=O)[C@H](CCC(=O)O)NC(=O)[C@H](CC(C)C)NC(=O)[C@H](CC(C)C)NC(=O)[C@@H](NC(=O)[C@H](CCC(N)=O)NC(=O)[C@H](CC(C)C)NC(=O)[C@H](CC(C)C)NC(=O)CNC(=O)[C@@H](NC(=O)[C@@H]1CCCN1C(=O)[C@@H](NC(=O)[C@H](CC(=O)O)NC(=O)[C@H](CC(C)C)NC(=O)[C@H](CO)NC(=O)[C@H](CC(C)C)NC(=O)[C@@H](NC(=O)[C@@H](NC)[C@@H](C)CC)C(C)C)C(C)C)[C@@H](C)CC)[C@@H](C)CC)[C@@H](C)O)[C@@H](C)CC)C(=O)N[C@@H](C)C(=O)N[C@@H](CCC(=O)O)C(=O)N[C@H](C(N)=O)C(C)C [compound 205] (H-[NMeI]VLSLDVPIGLLQILLEQARARAAREQAK([AEEA-AEEA-γGlu-γGlu-C20 diacid])TN[Aib]EI[Nle]AEV-NH2) | 0.0631 | 20689 | 1260 |  |  |
| CC[C@H](C)[C@H](N)C(=O)N[C@H](C(=O)N[C@@H](CC(C)C)C(=O)N[C@@H](CO)C(=O)N[C@@H](CC(C)C)C(=O)N[C@@H](CC(=O)O)C(=O)N[C@H](C(=O)N1CCC[C@H]1C(=O)N[C@H](C(=O)NCC(=O)N[C@@H](CC(C)C)C(=O)N[C@@H](CC(C)C)C(=O)N[C@@H](CCC(N)=O)C(=O)N[C@H](C(=O)N[C@@H](CC(C)C)C(=O)N[C@@H](CC(C)C)C(=O)N[C@@H](CCC(=O)O)C(=O)N[C@@H](CCC(N)=O)C(=O)N[C@@H](C)C(=O)N[C@@H](CCCNC(=N)N)C(=O)N[C@@H](C)C(=O)N[C@@H](CCCNC(=N)N)C(=O)N[C@@H](C)C(=O)N[C@@H](CCC(N)=O)C(=O)N[C@@H](CCCNC(=N)N)C(=O)N[C@@H](CCC(=O)O)C(=O)N[C@@H](CCC(N)=O)C(=O)N[C@@H](C)C(=O)N[C@@H](CCCCNC(=O)COCCOCCNC(=O)COCCOCCNC(=O)CC[C@H](NC(=O)CC[C@H](NC(=O)CCCCCCCCCCCCCCCCCCC(=O)O)C(=O)O)C(=O)O)C(=O)N[C@H](C(=O)N[C@@H](CC(N)=O)C(=O)N[C@@H](C)C(=O)N[C@@H](CCC(=O)O)C(=O)N[C@H](C(=O)N[C@@H](CC(C)C)C(=O)N[C@@H](C)C(=O)N[C@@H](CCC(=O)O)C(=O)N[C@H](C(N)=O)C(C)C)[C@@H](C)CC)[C@@H](C)O)[C@@H](C)CC)[C@@H](C)CC)C(C)C)C(C)C [compound 56] (H-IVLSLDVPIGLLQILLEQARARAQREQAK([AEEA-AEEA-γGlu-γGlu-C20 diacid])TNAEILAEV-NH2) |  |  |  | 0.398 | 3160 |
